Reference: patent publication US12570695B2, “Bicyclic peptide ligands specific for EphA2” (priority 2019, dated 2026)
Starred links: 1 amine or outer side, 2 acyl side, 3 side chain; linkers in the order of their positions; H or OH if unused. Positions of bridges follow the written chain, without caps; N, C: chain ends. Non-standard residues stand in square brackets, D forms with d. Residues, ends and D or L forms follow the SMILES beside them. TATA = O=C(CC[*:1])N1CN(C(=O)CC[*:2])CN(C(=O)CC[*:3])C1; Hyp = O=C(O)[C@@H]1C[C@@H](O)CN1; hArg = N=C(N)NCCCC[C@H](N)C(=O)O; 3Thi = N[C@@H](Cc1ccsc1)C(=O)O; Cba = N[C@@H](CC1CCC1)C(=O)O

Biological target: human EphA2 (Homo sapiens, UniProt P29317)
Sequence (P29317 24-976): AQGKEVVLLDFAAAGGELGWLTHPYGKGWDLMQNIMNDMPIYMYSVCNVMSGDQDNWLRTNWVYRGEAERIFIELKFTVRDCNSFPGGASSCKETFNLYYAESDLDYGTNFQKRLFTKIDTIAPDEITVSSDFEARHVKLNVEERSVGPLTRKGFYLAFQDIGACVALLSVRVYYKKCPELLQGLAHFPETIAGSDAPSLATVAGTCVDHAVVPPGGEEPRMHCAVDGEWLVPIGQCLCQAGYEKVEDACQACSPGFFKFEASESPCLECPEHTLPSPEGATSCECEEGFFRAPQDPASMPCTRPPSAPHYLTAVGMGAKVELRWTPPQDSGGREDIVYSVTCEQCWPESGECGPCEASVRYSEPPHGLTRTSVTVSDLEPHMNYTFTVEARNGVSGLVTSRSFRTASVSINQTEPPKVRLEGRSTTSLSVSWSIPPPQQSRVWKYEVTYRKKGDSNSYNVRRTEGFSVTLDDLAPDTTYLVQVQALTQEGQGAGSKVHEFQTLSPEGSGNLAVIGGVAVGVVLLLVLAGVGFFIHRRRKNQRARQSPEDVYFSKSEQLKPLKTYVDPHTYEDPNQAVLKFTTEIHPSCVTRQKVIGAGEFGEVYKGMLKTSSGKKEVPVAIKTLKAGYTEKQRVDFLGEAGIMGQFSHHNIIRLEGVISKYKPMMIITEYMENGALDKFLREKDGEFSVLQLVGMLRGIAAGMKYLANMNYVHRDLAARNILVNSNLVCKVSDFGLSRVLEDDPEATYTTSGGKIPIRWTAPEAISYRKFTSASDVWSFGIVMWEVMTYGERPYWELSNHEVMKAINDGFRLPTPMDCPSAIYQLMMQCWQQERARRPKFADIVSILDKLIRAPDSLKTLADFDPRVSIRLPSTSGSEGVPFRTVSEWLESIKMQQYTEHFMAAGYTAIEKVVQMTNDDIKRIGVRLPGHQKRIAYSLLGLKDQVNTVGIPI
Assay: biochemical
Procedure: Peptides without a fluorescent tag were tested in competition with a peptide with a fluorescent tag and a known Kd.
Peptides were diluted to an appropriate concentration in assay buffer as described in the direct binding assay with a maximum of 5% DMSO, then serially diluted 1 in 2. […] Measurements were conducted, however the gain was determined prior to the first measurement. Data analysis was in Systat Sigmaplot version 12.0 where the mP values were fit to a user defined cubic equation to generate a Ki value:
“Lig”, “KLig” and “Prot” were all defined values relating to: fluorescent peptide concentration, the Kd of the fluorescent peptide and EphA2 concentration respectively.

Structure (SMILES) | Ki [nM]
CC(C)C[C@@H]1NC(=O)[C@@H]2CSCCC(=O)N3CN(CN(C3)C(=O)CCSC[C@H](NC(=O)[C@H](CC(=O)O)NC(=O)[C@H](CCCCNC(=N)N)NC(=O)[C@H](C)N)C(=O)N3C[C@H](O)C[C@H]3C(=O)N[C@@H](CC(C)C)C(=O)N[C@@H](C(C)C)C(=O)N[C@@H](CC(N)=O)C(=O)N3CCC[C@H]3C(=O)N[C@@H](CC(C)C)C(=O)N2)C(=O)CCSC[C@@H](C(=O)N[C@H](C)C(N)=O)NC(=O)[C@H]([C@@H](C)O)NC(=O)[C@H](Cc2c[nH]c3ccccc23)NC(=O)[C@@H](CC(=O)O)NC(=O)[C@@H]2CCCN2C(=O)[C@H](CCC(=O)O)NC1=O [BCY12857, A-[HArg]-D-Ci[HyP]LVNPLCiiLEP[dD]WTCiii[dA]] (H-A[hArg]DC[Hyp]LVNPLCLEP[dD]WTC[dA]-NH2; linker 4-11-18 via TATA; N-terminus and C-terminus assumed) | 16
CC(C)C[C@@H]1NC(=O)[C@@H]2CSCCC(=O)N3CN(CN(C3)C(=O)CCSC[C@H](NC(=O)[C@H](CC(=O)O)NC(=O)[C@H](CCCCNC(=N)N)NC(=O)[C@H](C)N)C(=O)N3C[C@H](O)C[C@H]3C(=O)N[C@@H](CC(C)C)C(=O)N[C@@H](C(C)C)C(=O)N[C@@H](CC(N)=O)C(=O)N3CCC[C@H]3C(=O)N[C@@H](CC(C)C)C(=O)N2)C(=O)CCSC[C@@H](C(N)=O)NC(=O)[C@H](CCCCNC(=N)N)NC(=O)[C@H](Cc2c[nH]c3ccccc23)NC(=O)[C@@H](CC(=O)O)NC(=O)[C@@H]2CCCN2C(=O)[C@H](Cc2ccsc2)NC1=O [BCY13923, A[HArg]DCi[HyP]LVNPLCiiL[3Thi]P[dD]W[HArg]Ciii] (H-A[hArg]DC[Hyp]LVNPLCL[3Thi]P[dD]W[hArg]C-NH2; linker 4-11-18 via TATA; N-terminus and C-terminus assumed) | 1.32
CC(C)C[C@@H]1NC(=O)[C@@H]2CSCCC(=O)N3CN(CN(C3)C(=O)CCSC[C@H](NC(=O)[C@H](CC(=O)O)NC(=O)[C@H](CCCCNC(=N)N)NC(=O)[C@H](C)N)C(=O)N3C[C@H](O)C[C@H]3C(=O)N[C@@H](CC3CCC3)C(=O)N[C@@H](C(C)C)C(=O)N[C@@H](CC(N)=O)C(=O)N3CCC[C@H]3C(=O)N[C@@H](CC(C)C)C(=O)N2)C(=O)CCSC[C@@H](C(N)=O)NC(=O)[C@H](CCCCNC(=N)N)NC(=O)[C@H](Cc2c[nH]c3ccccc23)NC(=O)[C@@H](CC(=O)O)NC(=O)[C@@H]2CCCN2C(=O)[C@H](Cc2c[nH]cn2)NC1=O [BCY12862, A-[HArg]-D-Ci[HyP][Cba]VNPLCiiLHP[dD]W[HArg]Ciii] (H-A[hArg]DC[Hyp][Cba]VNPLCLHP[dD]W[hArg]C-NH2; linker 4-11-18 via TATA; N-terminus and C-terminus assumed) | 1.22
CC(C)C[C@@H]1NC(=O)[C@@H]2CSCCC(=O)N3CN(CN(C3)C(=O)CCSC[C@H](NC(=O)[C@H](CC(=O)O)NC(=O)[C@H](CCC(=O)O)NC(=O)[C@@H](C)N)C(=O)N3C[C@H](O)C[C@H]3C(=O)N[C@@H](CC(C)C)C(=O)N[C@@H](C(C)C)C(=O)N[C@@H](CC(N)=O)C(=O)N3CCC[C@H]3C(=O)N[C@@H](CC(C)C)C(=O)N2)C(=O)CCSC[C@@H](C(N)=O)NC(=O)[C@H]([C@@H](C)O)NC(=O)[C@H](Cc2c[nH]c3ccccc23)NC(=O)[C@@H](CC(=O)O)NC(=O)[C@@H]2CCCN2C(=O)[C@H](CCC(=O)O)NC1=O [BCY13126, [dA]-ED-Ci[HyP]LVNPLCiiLEP[dD]WTCiii] (H-[dA]EDC[Hyp]LVNPLCLEP[dD]WTC-NH2; linker 4-11-18 via TATA; N-terminus and C-terminus assumed) | 25.3
